According to a melting point compilation (Tetko et al.; mined from patent text by program, amines drawn as free bases though some values may be those of a salt):

| Compound | melting point [°C] |
| --- | --- |
| CCN1CCN2C(=O)c3ccccc3C12c1ccccc1 (stereo unspecified) | 122 to 124 |
| CCCc1nn(-c2ccc(C(F)(F)F)cn2)cc1/C=C/C(=O)OCC | 104 to 105 |
| N=C(NCCN1CCC(Nc2nc3ccccc3n2Cc2ccc(F)cc2)CC1)N[N+](=O)[O-] | 147 |
| O=C(NO)c1cccnc1Cl | 179 |
| O=C1CCc2c(ccc3ccc(O)cc23)O1 | 194 to 202 |
| CC1(O/N=C(\C(=O)O)c2csc(N)n2)CCCCC1 | 203 to 204 |
| Cc1cc(-c2nc3cccnn3c2-c2ccnc(NC(=O)c3ccc4ncsc4c3)c2)ccc1F | 252 to 253 |
| O=C(O)Cn1c(=O)c(=O)[nH]c2cc(Br)ccc21 | > 320 |
| CC1(C)CCC(N)=CC1=O | 153 to 154 |
| Cc1sc(C#N)c2c1C(=O)CC(C)(C)C2 | 73 to 75 |
| C#CCn1c(-c2c(Cl)cccc2Cl)nc(-c2ccncc2)c1-c1ccc(Cl)cc1 | 169 to 172 |
| Cn1nnnc1-c1cn(C)c2cc(N3CCOCC3)ccc2c1=O | 235 to 238 |
| CC1(C)CC(=O)c2cc(C#N)c(N3CCCCC3)nc2C1 | 99 to 100 |
| CN(C)c1nc(Cl)nc(-n2ccnc2)n1 | 88 to 92 |
| CCCCN1C(=O)NC(Cc2ccccc2)C1=O (stereo unspecified) | 143 |
| Cn1c(=O)c(=O)[nH]c2cc(Cl)ccc21 | 342 |
| O=C(O)c1ccc(NC(c2ccc(Cl)cc2)c2ccc(Cl)cc2)cc1 | 245 to 247 |
| CCN1CC(NC(=O)c2ccc(F)cc2)CN1CC | 114 to 116 |
| O=[N+]([O-])c1ccnc(-c2cc(C(F)(F)F)ccc2F)c1 | 58.1 |
| CCCc1ccc2c(c1)C=Cc1cc(C)ccc1C2c1cn(-c2ccnc(N(C)CC(=O)O)n2)c(=O)[nH]c1=S (stereo unspecified) | 145 to 150 |
| Cc1nc2c(s1)N(C(=O)c1cnoc1C)CCCC2 | 117 to 118 |
| O=C1CN(c2nccc(Oc3ccc(NC(=O)c4cc(F)cc(N5CCOCC5)c4)c4ccccc34)n2)CCN1 | 108 to 110 |
| N#Cc1c(Cl)c(Cl)c(NCCN)c(Cl)c1Cl | 140 to 144 |
| CCSC(=O)Cc1cc(Oc2ccc(C(F)(F)F)cc2Cl)ccc1[N+](=O)[O-] | 82.5 to 84.2 |
| COc1ccc(-c2ccc(C(=O)O)cc2)c2c1OCCO2 | 281 to 284 |
| NC(=O)N(O)[C@H]1CC[C@H](c2cccc(F)c2)C1 (relative stereo) | 113 to 114 |
| CN1CC(CCCCN2CCN(c3ncccn3)CC2)OC1=O (stereo unspecified) | 74 to 76 |
| CCN(O)Cc1nnc2n1-c1ccc(Cl)cc1C(c1ccccc1)=NC2 | 154 to 157 |

| Compound | melting point [°C] |
| --- | --- |
| O=C(C=Cc1ccc(F)cc1)C(=O)Nc1ccc(C(F)(F)F)cc1 | 200 to 201 |
| COc1ccc(OCCc2c[nH]cn2)cc1 | 178 to 181 |
| O=CNCCNC1=NS(=O)(=O)c2cc(Cl)ccc2N1 | 245 to 247 |
| O=C(O)c1cccc(Oc2ccc(C(F)(F)F)c(Cl)c2)c1 | 90 to 91 |
| OCc1ccc(C2=NOC(c3cc(Cl)cc(Cl)c3)(C(F)(F)F)C2)cc1Cl (stereo unspecified) | 32 to 35 |
| COC(=O)C1CCCN(C(=O)OC(C)(C)C)C1 (stereo unspecified) | 47.5 to 48.5 |
| CN1CCN(c2cc(Cl)cc3c2c(=O)n(Cc2cccc4ccccc24)c(=O)n3Cc2ccccc2)CC1 | 75 to 89 |
| CCCCNS(=O)(=O)CC(O)C(O)C(CC1CCCCC1)NC(=O)c1ccc(O)nc1 (stereo unspecified) | 247 to 252 |
| c1ccc(N2CCN(CCCc3cccnc3)CC2)nc1 | 51 to 52 |
| COc1ccc(C(=O)N2c3ccccc3C(n3c4ccccc4c4ccccc43)CC2CCCCCN(C)C)cc1OC (stereo unspecified) | 198 to 200 |
| Cn1c(C(F)(F)F)cc(=O)n(-c2cc(OC(=O)CC#N)c(Cl)cc2F)c1=O | 157 to 160 |
| C[C@@H](SCC(N)=O)[C@](O)(Cn1cncn1)c1ccc(F)cc1F | 144 to 145 |
| Cc1c(F)c(N2CCN(C=O)C(C)C2)cc2c1C(=O)C(C=O)CN2C1CC1 (stereo unspecified) | 148 to 150 |
| O=C(CO)Nc1nc2c(Cl)cccc2s1 | 242 to 245 |
| O=C1NC(=S)SC1=Cc1ccc2c(c1)N(OCc1ccc(Cl)c(Cl)c1)C(=O)CO2 | > 300 |
| COc1ccccc1C1(O)C(O)CCC2CN(Cc3ccccc3)CC21 (stereo unspecified) | 140 |
| N#Cc1ccc(-c2ccc(N3CCCNC3=O)cc2)cc1 | > 200 |
| CCC(C#N)=C1CCN(c2ccc(N3C[C@H](CNC(=O)C(Cl)(Cl)Cl)OC3=O)cc2F)CC1 | 150 to 152 |
| O=C1NC(=O)c2c1c(-c1ccccc1Cl)cc1c2c(Br)c(CO)n1CCCO | 203 to 205 |
| CCOC(=O)c1cn(C2CC2)c2c(OC(F)F)c(F)c(F)c(N)c2c1=O | 295 to 296 |
| O=C(O)C1C=C(c2ccccc2)CC1 (stereo unspecified) | 122 to 124 |
| NS(=O)(=O)C1=CC2=C(OCCO)CCS(=O)(=O)C2S1 (stereo unspecified) | 159 to 164 |
| COc1ccc(C(O)CN)cc1OC (stereo unspecified) | 80 to 81 |
| CC(C)N1C(=O)c2cccnc2NS1(=O)=O | 190 |
| C1=C(/C=C/c2ccccc2)CCN(Cc2n[nH]c3c2CCc2ccccc2-3)C1 | 205 to 210 |
| COc1cc2ncc(C#N)c(Nc3ccc(F)c(Cl)c3)c2cc1NC(=O)C=CCN1C(C)CCC1C (stereo unspecified) | 110 to 113 |
| BrCc1ccc(-c2ccc(CBr)cc2)cc1 | 166 to 168 |

Next, values leading:

| melting point [°C] | Compound |
| --- | --- |
| 173 to 175 | CCOC(=O)C(=O)CC(=O)c1cn(Cc2ccccc2F)c2cc(Cl)ccc2c1=O |
| 130 to 138 | CON=C(Nc1nc(C)cc(C)n1)NS(=O)(=O)c1ccccc1S(=O)(=O)OC |
| 105 to 115 | CN1C(=O)CCC2(C)c3ccc(C(=O)c4ccccc4Cl)cc3CCC12 (stereo unspecified) |
| 181 to 184 | Cc1nc(Nc2ccccc2)nc(C#N)c1C |
| 248 to 250 | COc1ccc2c(c1)c(CC(=O)O)c(C)n2-c1ccnc2cc(Cl)ccc12 |
| 129 to 131 | O=C1CCCN(C(=O)c2ccccc2)C(=O)CCc2cc(Cl)ccc21 |
| 125 to 126 | CS(=O)(=O)c1ccc(-c2oncc2CCCO)cc1 |
| 45 to 47 | CNC(=O)[C@@H]1C[C@@H](OC)CN1C(=O)OCc1ccccc1 |
| 149 to 151 | c1ccc2c(c1)NCc1nnnn1-2 |
| 145 to 148 | CC(=O)Oc1ccc2c(C)cc(=O)oc2c1CC(Br)CBr (stereo unspecified) |
| 101 to 102 | CCOC1CN(Cc2ccccc2OC)Cc2cc(OC)c(O)cc21 (stereo unspecified) |
| 186 to 187 | CC(=O)Oc1ccc(NC(=O)c2ccc(Sc3cc4c(cc3C)C(C)(C)CCC4(C)C)cc2)cc1 |
| 168 to 170 | Clc1nc(-c2ccccc2)nc2c1Cc1ccccc1O2 |
| 135 to 137 | COc1ccc(-c2cc(=O)n(CCC(=O)NCc3ccccc3)nc2-c2ccc(OC)cc2)cc1 |
| 186 to 188 | CCc1nc(OC)c(NC(=O)N2CCN(c3cccc(F)c3)CC2)cc1C(=O)Nc1cc(CO)cc(Nc2c3ccccc3nc3ccccc23)c1 |
| 106 to 109 | Cc1cccc(C)c1N(CC(C)Cl)C(=O)c1ccccc1 (stereo unspecified) |
| 118 to 120 | O=C(NCCC12CCC(=O)N1C(=O)CC2)OCc1ccccc1 |
| 177 to 178 | CCN(c1ccc(C)c2cc(-c3ncc(CCl)s3)[nH]c12)S(=O)(=O)c1cccs1 |
| 135 to 140 | COc1ccccc1N1CCN(CCCNC(=O)c2cccc3c(=O)cc(-c4ccccc4)[nH]c23)CC1 |
| 146 to 147 | CNC(=O)c1cccc(F)c1Nc1nc(Nc2ccc3c(c2)CCCC(=O)N3CCOC)ncc1Cl |
| 56 | COC(=O)CCc1ccc(CNC(=O)[C@@H]2Cc3ccccc3N2S(=O)(=O)c2ccc(C(C)(C)C)cc2)cc1 |
| 182 to 184 | C[C@H](O)Cn1c(=O)c(Oc2ccc(F)cc2F)cc2cnc(NC(C)(C)CO)nc21 |
| 124 to 126 | O=C(c1cccnc1)N1CCC(c2cccc(Cl)c2)=N1 |

| melting point [°C] | Compound |
| --- | --- |
| 185 to 186 | CCOc1cc(Cc2cnc(N)nc2N)cc2c1OC(C)(C)C=C2c1cccc(F)c1 |
| 120 to 121 | CCOC(=O)c1ccccc1OCNC(=O)CCCCCNC(=O)OC(C)(C)C |
| 185 to 186 | CN(C)CCc1c(-c2ccc3ccccc3c2)[nH]c2ccccc12 |
| 107 to 108 | CN(C)C(=O)N(C)c1nc2cc(C(C)(C)C)ccc2s1 |
| 193 to 194 | O=C(O)c1ccc(C(=O)N(Cc2ccccc2)S(=O)(=O)c2ccc(Br)cc2)cc1 |
| 100 to 101 | CCCNC(=O)Nc1nn(Cc2ccccc2)cc1C(=O)OCC |
| 123 to 126 | CC(=O)N(C1=C(NC(C)C)C(=O)c2c(cnn2C)C1=O)C(C)C |
| 120 | O=C(c1ccccc1)c1cc([N+](=O)[O-])ccc1NCc1ccccc1 |
| 199 to 200 | CC(N1C(=O)C(=O)N(c2ccc(Cl)cc2)C1=S)C(C)(C)C (stereo unspecified) |
| 135 | COc1nc(C)nc(NC(=O)NS(=O)(=O)c2ccc(Cl)nn2)n1 |
| 147 to 149 | CC(C)(C)OC(=O)NC1CCCOCC=CC2CC2(C(=O)NS(=O)(=O)C2CC2)NC(=O)C2CC(OCc3ccccc3)CN2C1=O (stereo unspecified) |
| 66 to 67 | COC(=O)c1ccc(OC)c(OC)c1N |
| 160 to 161 | COc1cccc2c(-c3ccccc3)c([N+](=O)[O-])oc12 |
| 103 to 104 | Cc1cc(C)n(-c2nc(-c3ccc(Cl)cc3)c(CCCOc3ccccc3C)o2)n1 |
| 105 to 106 | CCOC(=O)/C=C/c1cc(OCc2cn(-c3ccc(C(F)(F)F)cn3)nc2C(C)C)nn1C |
| 138 to 140 | Cc1onc(-c2ccccc2)c1-c1ccc(S(=O)(=O)NC(=O)CC(C)(C)S)cc1 |
| 250 to 251 | Cc1cccc(C(=O)Nc2c[nH]nc2C(=O)NCC(C)(C)C#N)n1 |
| 155 to 156 | CC(C)(C)OC(=O)N1CC(=O)Nc2cccc(F)c21 |
| 105 to 107 | COc1cccc(CCCC(=O)O)c1C |
| 115 to 116 | COC(=O)/C=C/c1ccc(OC2Cc3ccccc3C2)cc1 |
| 131 | COc1ccc(CN(C)CCCCc2ccc(NC(=O)c3cccc4c(=O)c5cccc(F)c5[nH]c34)cc2)cc1OC |
| 271 to 272 | CC(=O)Nc1ccc(C=Cc2cc(=O)cc(-c3ccccc3)o2)cc1 |
| 244 to 251 | O=C(COc1ccc(-c2ccc(F)cc2)cc1)Nc1cscc1C(=O)O |
